Values quoted from earlier work as cited in publication PMC7968864, “Theory of Allosteric Regulation in Hsp70 Molecular Chaperones” (QRB Discovery, 2020).

Experiments:
[1] = system: I483D DnaK; set-up: method as in Wang et al., 2020; details: fluorescein-labelled NR peptide 10 nM, fluorescence anisotropy, ref Wang et al., 2020
[2] = system: WT DnaK; details: fluorescence anisotropy, ref Wang et al., 2020

In the case of “NRLLLTG [fluorescein-labelled NR peptide]”, the “peptide binding in ADP (in words)” value [1] is listed as “indistinguishable from that to WT when in ADP” and the “peptide binding in ATP versus ADP (in words)” value [2] is listed as “much reduced in the presence of ATP as compared to when with ADP”.
